# Assay results taken from a melting point compilation (Tetko et al.; mined from patent text by program, amines drawn as free bases though some values may be those of a salt).
row,melting point,SMILES
1,155 to 158 °C,COc1cccc(C2=C(CC(C)=NO)C(=O)NCCC2)c1
2,95 to 96 °C,COc1cc(COc2nn(-c3ccccc3)cc2CC2=NCCO2)ccc1OCc1nc(-c2ccco2)oc1C
3,150 to 151 °C,Cc1cc(-c2ccccc2)nn2cnnc12
4,138 to 140 °C,Cc1c(C)n(CC=CC(F)(F)F)c2c(OCc3ccccc3)nncc12
5,75 to 77 °C,COC1(c2cc(F)cc(CC#COC#CCc3cc(F)cc(C4(OC)CCOCC4)c3)c2)CCOCC1
6,98 to 99 °C,Nc1cccc(Oc2ccc(Oc3cccc(N)c3)cc2)c1
7,206 to 210 °C,Cn1cc(CO)c(=O)c2cccc(F)c21
8,132 to 133 °C,CC(C)n1nc(-c2cc(C(=O)N3CCOCC3)cnc2-c2ccccc2)ccc1=O
9,237 °C,COC(=O)c1ccc(C(=O)Nc2cccc(Nc3nc(-c4cccnc4)cs3)c2)cc1
10,209 to 214 °C,O=C(CC1CCCCC1)Nc1c(Cl)ccc2nc(N3CCC[C@@H](O)C3)ccc12
11,245 to 250 °C,Nc1ccc(C(=O)c2cnc(NC3CCCCC3)s2)cc1[N+](=O)[O-]
12,214 to 216 °C,CCOC=CC(=O)Nc1ccc(-n2cnc(C)c2)cc1
13,114 to 116 °C,N#CN=C(NCCO)NCCCSc1nccc(NC(N)=NCC(F)(F)F)n1
14,178 to 179 °C,Nc1nc2[nH]c(CCC#Cc3ccc(C(=O)N[C@@H](CCC(=O)O)C(=O)O)cn3)cc2c(=O)[nH]1
15,104 to 106 °C,Cc1cc(Cl)c2ccc(Cl)cc2c1CCC=O
16,150 °C,CCc1nnc(-c2ccc(OC)cc2)n1-c1ccc(OC)c(OC)c1
17,135 to 136 °C,O=C(Nc1nc(C(O)C(=O)O)cs1)OCC(Cl)(Cl)Cl (stereo not drawn)
18,109 to 110 °C,O=c1oc(-c2c(F)cccc2Cl)nn1-c1ccccc1C(F)(F)F
19,118 to 120 °C,COC(=O)C(Oc1ccc(C(C)(C)C)cc1)c1ccc(Oc2ccc(Cl)cc2)cc1 (stereo not drawn)
20,145 to 147 °C,Cc1cc(C(=O)c2cc(C(F)(F)F)cc(C(F)(F)F)c2)ccc1N(C)C
21,215 to 217 °C,O=C(c1ccc(Oc2ccc(Oc3ccc(C(=O)C(Cl)(Cl)Cl)cc3)cc2)cc1)C(Cl)(Cl)Cl
22,151 to 153 °C,Fc1ccc(N2CCN(CCCOc3ccc(-n4cccn4)cc3)CC2)cc1
23,70 to 72 °C,Cc1ccc(S(=O)(=O)N(CCBr)c2ccc(Cl)cc2[N+](=O)[O-])cc1

row,melting point,SMILES
1,273 to 275 °C,CNC(=O)c1ccc(C)c(-c2nc(SC)nc3c2CNC(=O)N3c2c(F)cccc2F)c1
2,205 to 207 °C,CC(=O)Oc1ccc(C=CC(=O)O)cc1C=O
3,220 °C,O=C(Nc1cccc2cnccc12)NC1CC2(CCOCC2)Oc2ccccc21 (stereo not drawn)
4,190 to 191 °C,Cc1ccccc1-c1c(-c2ccc(S(C)(=O)=O)cc2)oc2ccccc2c1=O
5,85 to 86 °C,CCCSc1ncnc2c1ncn2C1CC(F)C(CO)O1 (stereo not drawn)
6,45 to 48 °C,CC(C)N=C(NC(C)C)ON=C1CCCCC1
7,178 to 180 °C,NS(=O)(=O)c1ccccc1C=C1CCOC1=O
8,153 to 154 °C,NNC(=O)c1c(OCC(F)(F)F)cccc1OCC(F)(F)F
9,207 to 209 °C,Cc1cccc(NC(=O)NC2CN(C(=O)C3CC3)c3ccccc3N(CC(=O)c3ccccc3C)C2=O)c1 (stereo not drawn)
10,168 to 170 °C,Cc1cn(Nc2ccncc2)c2ccc(OCc3ccccc3)cc12
11,175 °C,CC(C)=CC(=O)Nc1ccc(F)cc1CCN1CCN(c2nsc3ccccc23)CC1
12,171 to 172 °C,O=C(Cc1noc2ccccc12)NS(=O)(=O)c1ccccc1
13,200 to 203 °C,CNC(=O)Nc1nc(CC(=O)Nc2cccc(C(F)(F)F)c2)cs1
14,120 °C,O=C(O)Cc1ccc(CNC(=O)C2Cc3ccccc3N2S(=O)(=O)c2ccc(-c3cccc(Cl)c3)cc2)cc1 (stereo not drawn)
15,85 to 86 °C,COC(=O)c1ccc(O)c(C(=O)CC(=O)c2cc(C)ccc2OC(C)C)c1
16,138 °C,C=COCCN1CCC(Nc2nc3ccccc3n2Cc2ccc(F)cc2)CC1
17,> 320 °C,O=C(CCN1CCOCC1)Nc1ccc2c(=O)c3ccc(NC(=O)CCN4CCOCC4)cc3[nH]c2c1
18,228 °C,CC(=NNC(=O)c1cc([N+](=O)[O-])cc2ccccc12)c1ccncc1
19,226 to 227 °C,COc1ccccc1Oc1cc2c(=O)c(NC=O)coc2cc1NS(C)(=O)=O
20,102 to 103 °C,OC1CCCc2cc(F)cc(F)c21 (stereo not drawn)
21,195 to 197 °C,CCCCCCCCc1sc(NC(=O)c2cc3cc(C)cc(C)c3n2Cc2cccc(C(=O)O)c2)nc1-c1cc(OC)c(Cl)cc1OC
22,195 to 197 °C,COC(=O)c1cc2c3ccccc3n(S(=O)(=O)c3ccccc3)c2s1
23,232 to 233 °C,O=C1N=Nc2ccccc21

row,melting point,SMILES
1,144 to 146 °C,Cc1nc2c(OCc3c(Cl)ccc(S(=O)(=O)N4CCC[C@H]4C(=O)NCc4ccc(C=NN)cc4)c3Cl)cccn2c1C
2,157 to 160 °C,CC(=O)SCC(C(=O)NCCc1nnn[nH]1)C(F)(F)F (stereo not drawn)
3,136 to 138 °C,CN(C)C(=O)Cn1c(-c2cccc(C(F)(F)F)c2)nc2cccnc21
4,198 to 200 °C,C=Cc1cc(C)cc(C)c1C1=C(O)C2(CCN(OC)CC2)NC1=O
5,212 to 215 °C,Cc1n[nH]c(=O)c(-c2c(F)cc(F)cc2F)c1Cc1ccc(Cl)cc1
6,227 to 228 °C,CC(=O)NC(C#N)NC(=O)c1cc(Cl)cc(Cl)c1 (stereo not drawn)
7,160 °C,Cc1cc(COc2ccc3nc(NC(=O)NCCN4CCOCC4)sc3c2)n(C)n1
8,299 to 301 °C,O=c1cc(CBr)c2c(Cl)cc(Cl)cc2[nH]1
9,180 to 183 °C,CCOc1csc2c(O)c(SC)cnc12
10,69.5 to 70 °C,CSc1ncc(C=O)c(NC2CC2)n1
11,123 to 126 °C,CSc1cccc(Oc2ncc(F)cc2C(=O)N[C@H]2CC[C@@H](CO)CC2)c1
12,91 to 92 °C,CN(CCN1CCOCC1)c1noc2cc(O)ccc12
13,188 to 190 °C,CCNc1nc2c(N)nc3ccccc3c2n1CC(C)C
14,262 to 264 °C,CON=Cc1nc2c(N)nc3cc(Br)ccc3c2s1
15,68 to 70 °C,CSCC(=O)N=C(SC)N(C)N=Cc1ccccc1
16,133 to 134 °C,CC(C)c1ccc(Oc2ccc(C(=O)C=CC(=O)O)cc2)cc1
17,157 to 158 °C,CCc1c(C(C)(C)C)cc(C(C)(C)C)c(O)c1C(=O)Nc1ccc(S(=O)(=O)C(F)(F)F)cc1Cl
18,96 °C,CC(C)(C)OC(=O)N(CCCCCCN1C(=O)c2ccccc2C1=O)CCN(CCCCCCN1C(=O)c2ccccc2C1=O)C(=O)OC(C)(C)C
19,135 to 136 °C,COc1cc(OC(C)=O)c2ccccc2c1OC(C)=O
20,170 to 171 °C,COc1cc2cc(-c3ccccc3Cl)sc2c(Cl)c1Cl
21,116 to 118 °C,COc1ccc2cc(-c3nccn3C)ccc2n1
22,142 to 146 °C,COCCOc1cccc(-c2ccc(C3CCN(S(=O)(=O)C(C)(C)C(=O)O)CC3)cc2C)n1
23,226 to 228 °C,CCOC(=O)C1=C(c2ccc(-n3c(C)nc4cnccc43)cc2)NC(C)=C(C(=O)Nc2ccccn2)C1c1ccccc1Cl (stereo not drawn)

row,melting point,SMILES
1,195 to 198 °C,Oc1ccc(Sc2ccc(F)cc2)c2ccccc12
2,177 to 179 °C,O=C1c2ccccc2C(=O)N1OCc1ccn(C(c2ccccc2)(c2ccccc2)c2ccccc2)n1
3,101 to 102 °C,CC(=O)NCc1ccc2ccn(C3CCN(CCc4ccccc4F)CC3)c2c1
4,101 °C,COC(=O)c1ccccc1S(=O)(=O)NC(=O)c1cc(C)on1
5,165 to 166 °C,CC(=O)NC(Cc1ccc([N+](=O)[O-])cc1)C(=O)O (stereo not drawn)
6,175 to 177 °C,COc1nc(NC(=O)NS(=O)(=O)c2ccccc2S(=O)(=O)N2CCC2)nc(OC)n1
7,230 to 241 °C,CN(C)c1nccc(-c2cccnc2)n1
8,119 to 126 °C,Cc1ccc(S(=O)(=O)NC2(S(=O)(=O)n3ccc(/C=C/C(=O)NO)c3)C=CC(c3ccccc3)=CC2)cc1 (stereo not drawn)
9,68 to 71 °C,CC(C)(C)OC(=O)N1Cc2ccccc2CN1
10,169 to 170 °C,CC(C)Cn1c(CNC(=O)OC(C)(C)C)c(-c2ccccc2)c2cc(CO)ccc2c1=O
11,151 to 152 °C,CCOc1ccc(-c2noc3c(Cl)c(OC)ccc23)c(F)c1
12,96 to 98 °C,COc1ccc(-c2ccc(COCCc3cccc(NS(=O)(=O)C(F)(F)F)c3)cc2)cc1
13,202 to 205 °C,CC1(C)C=Cc2c(ccc3c2C(=O)C(Br)=C(O)C3=O)O1
14,95 to 96 °C,CS(=O)(=O)N1CCC=CCC1
15,130 °C,O=C(c1cc(=O)c2cc(O)ccc2[nH]1)N1CCC(COc2ccccc2)CC1
16,295 °C,CC1(C)Cc2c(c(N3CCCC3)nc3sc4c(NCc5ccc(S(N)(=O)=O)cc5)ncnc4c23)CO1
17,258 to 260 °C,COc1ccc2c(c1)S(=O)(=O)c1c(cc(OC)c(OC(C)=O)c1Br)N2
18,214 to 216 °C,N#Cc1cn(C2CCc3ccccc3NC2=O)nn1 (stereo not drawn)
19,242 to 244 °C,CC(=Cc1ccc(C(=O)O)cc1)c1ccc2c(c1)OCCC2(C)C
20,127 to 129 °C,COC(=O)C(CO)N(Cc1ccccc1[N+](=O)[O-])S(=O)(=O)c1ccc(OC)cc1 (stereo not drawn)
21,215 °C,CC(=O)Nc1coc2ccc(C(C)(C)C)cc2c1=S
22,115 °C,Nc1ccc(F)cc1CCN1CCN(c2nsc3ccccc23)CC1
23,68 to 70 °C,COC(=O)CCc1ccc(Nc2ccccc2[N+](=O)[O-])cc1

row,SMILES,melting point
1,COc1ccc2c(c1)c(C(=O)CCC(=O)O)c(C)n2Cc1ccc(Br)cc1,215 to 217 °C
2,CN(C)c1ncn2c1C[N+]([O-])=C(c1ccccc1F)c1cc(Cl)ccc1-2,203 to 206 °C
3,COc1cc2c(cc1OC)N(C)C(=O)CN=C2c1cccc(C)c1,119 to 121 °C
4,Cc1ccccc1NC(=O)c1cc([N+](=O)[O-])ccc1NC(=O)CF,238 to 239 °C
5,OCCCN1CCN(c2ccccc2)CC1,72 to 73 °C
6,CC1(C)CCC(C)(C)c2cc(-c3cc4ccc(C(=O)O)cc4s3)ccc21,297 °C
